Legend:
Assay in all cases: relative viability (nuclei count vs DMSO), 5 days (fraction); higher = more cells survive
[1] = compound: CN(C)C[C@@H]1CCn2cc(c3ccccc32)C2=C(C(=O)NC2=O)c2cn(c3ccccc23)CCO1 [Ruboxistaurin] + O=C(c1cc(Cc2n[nH]c(=O)c3ccccc23)ccc1F)N1CCN(C(=O)C2CC2)CC1 [Olaparib] (partner 8 µM)
Procedure, shortened: (§1)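 The day after seeding in 1536-well plates, lung cancer cell lines were treated by pin tool with a single drug, or with a fixed anchor-drug dose together with five library-drug doses (not always all listed) in √10 steps. After 5 days, a combined fix-and-stain solution (final 0.05% Triton X-100, 1% formaldehyde, 1 ug/ml Hoechst) was added. Nuclei counted on 4× images gave relative viability as treated counts over vehicle counts, reported as the median of duplicate plates.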

[2] = compound: CN(C)C[C@@H]1CCn2cc(c3ccccc32)C2=C(C(=O)NC2=O)c2cn(c3ccccc23)CCO1 [Ruboxistaurin] + C[C@]1(O)C[C@@H](c2nc(-c3ccc4ccc(-c5ccccc5)nc4c3)c3c(N)nccn32)C1 [Linsitinib] (partner 1 µM)
Procedure, shortened: as §1

[3] = compound: CN(C)C[C@@H]1CCn2cc(c3ccccc32)C2=C(C(=O)NC2=O)c2cn(c3ccccc23)CCO1 [Ruboxistaurin] + Nc1nc2[nH]cc(CCc3ccc(C(=O)N[C@@H](CCC(=O)O)C(=O)O)cc3)c2c(=O)[nH]1 [Pemetrexed] (partner 0.2 µM)
Procedure, shortened: as §1

[4] = compound: CN(C)C[C@@H]1CCn2cc(c3ccccc32)C2=C(C(=O)NC2=O)c2cn(c3ccccc23)CCO1 [Ruboxistaurin] + C[C@@H](Oc1cc(-c2cnn(C3CCNCC3)c2)cnc1N)c1c(Cl)ccc(F)c1Cl [Crizotinib] (partner 1 µM)
Procedure, shortened: as §1

[5] = compound: CN(C)C[C@@H]1CCn2cc(c3ccccc32)C2=C(C(=O)NC2=O)c2cn(c3ccccc23)CCO1 [Ruboxistaurin] + CC(=O)Nc1cccc(-n2c(=O)n(C3CC3)c(=O)c3c(Nc4ccc(I)cc4F)n(C)c(=O)c(C)c32)c1 [Trametinib] (partner 0.02 µM)
Procedure, shortened: as §1

Cell Line | relative viability ([1]; first compound 0.08 µM) | relative viability ([1]; first compound 0.8 µM) | relative viability ([1]; first compound 2.53 µM) | relative viability ([1]; first compound 8 µM) | relative viability ([2]; first compound 0.08 µM) | relative viability ([2]; first compound 0.8 µM) | relative viability ([2]; first compound 2.53 µM) | relative viability ([2]; first compound 8 µM) | relative viability ([3]; first compound 0.08 µM) | relative viability ([3]; first compound 0.8 µM) | relative viability ([3]; first compound 2.53 µM) | relative viability ([3]; first compound 8 µM) | relative viability ([4]; first compound 0.08 µM) | relative viability ([4]; first compound 0.8 µM) | relative viability ([4]; first compound 2.53 µM) | relative viability ([4]; first compound 8 µM) | relative viability ([5]; first compound 0.08 µM) | relative viability ([5]; first compound 0.8 µM) | relative viability ([5]; first compound 2.53 µM) | relative viability ([5]; first compound 8 µM)
NCI-H3122 | 0.743 | 0.581 | 0.559 | 0.572 | 1.03 | 0.978 | 1.03 | 1.01 | 0.191 | 0.201 | 0.191 | 0.187 | 0.28 | 0.211 | 0.298 | 0.225 | 0.241 | 0.179 | 0.227 | 0.232
PC-3 [JPC-3] | 1.24 | 1.09 | 1.08 | 1.17 | 0.974 | 0.91 | 0.915 | 1 | 1.22 | 1.09 | 1.17 | 1.04 | 1.03 | 0.958 | 1 | 1.02 | 0.821 | 0.653 | 0.715 | 0.685
PC-14 | 0.246 | 0.302 | 0.364 | 0.256 | 1.02 | 0.914 | 0.936 | 0.914 | 0.135 | 0.136 | 0.136 | 0.115 | 0.932 | 0.821 | 0.958 | 0.929 | 1.05 | 0.667 | 0.73 | 0.527
RERF-LC-KJ | 0.938 | 0.804 | 0.942 | 0.709 | 0.877 | 0.857 | 0.932 | 0.956 | 0.48 | 0.46 | 0.483 | 0.446 | 0.811 | 0.766 | 0.812 | 0.926 | 0.932 | 0.867 | 0.836 | 0.857
SK-LU-1 | 0.483 | 0.397 | 0.536 | 0.469 | 1.14 | 0.975 | 0.991 | 0.854 | 0.944 | 0.913 | 1.12 | 0.954 | 1.03 | 0.734 | 0.869 | 0.583 | 0.575 | 0.418 | 0.717 | 0.422
SK-MES-1 | 0.726 | 0.555 | 0.905 | 0.465 | 1.08 | 1 | 1.02 | 0.996 | 0.997 | 0.899 | 1.01 | 0.863 | 1.06 | 1.03 | 0.979 | 0.972 | 0.629 | 0.508 | 0.492 | 0.442
SW 1573 | 0.494 | 0.369 | 0.595 | 0.482 | 0.879 | 0.839 | 0.799 | 0.772 | 0.923 | 0.803 | 0.795 | 0.704 | 0.855 | 0.74 | 0.942 | 0.688 | 0.527 | 0.491 | 0.549 | 0.516
UMC-11 | 0.554 | 0.364 | 0.361 | 0.289 | 0.976 | 0.884 | 0.987 | 0.642 | 0.823 | 0.721 | 0.688 | 0.606 | 0.537 | 0.554 | 0.64 | 0.465 | 0.766 | 0.623 | 0.649 | 0.577
